These results are taken from US8735414B2 (priority 2009, dated 2014).

Data set [1] deals with bicistronic HCV replicon (replicon RNA, GenBank Accession No. AJ242654). The experiment in a line: HCV Replicon Assay. The class given is cell-based. Particulars: Hepatitis C virus, 72 h, read-out: Replicon IC50. (In antiviral work, replicon cells carry a viral genome segment that copies itself.)

A word on the IC50: it is the concentration needed to halve the response being measured. The term melting point denotes the temperature of the solid-liquid transition. In the case of `C[C@H](NS(=O)(=O)c1cnc(-c2c(C#N)c3ccc(C4CC4)cc3n2C2CCC2)nc1)C(F)(F)F` [compound 324, 2-(3-cyano-1-cyclobutyl-6-cyclopropyl-1H-indol-2-yl)-N-[(2S)-1,1,1-trifluoropropan-2-yl]pyrimidine-5-sulfonamide], the melting point lay in the range of 214 to 215 °C. Also, in data set [1], the half-maximal inhibitory concentration (IC50) was less than 500 nM.
On the same counts, the results for `Cc1ccc2c(C#N)c(-c3ncc(S(=O)(=O)N[C@@H](C)C(F)(F)F)cn3)n(C3CCC3)c2c1` [compound 325, 2-(3-cyano-1-cyclobutyl-6-methyl-1H-indol-2-yl)-N-[(2S)-1,1,1-trifluoropropan-2-yl]pyrimidine-5-sulfonamide] are 242 to 243 °C and less than 500 nM.
For the compound `C[C@H](NS(=O)(=O)c1cnc(-c2c(C#N)c3ccc(OC(F)F)cc3n2C2CCCC2)nc1)C(F)(F)F` [compound 326, 2-[3-cyano-1-cyclopentyl-6-(difluoromethoxy)-1H-indol-2-yl]-N-[(2S)-1,1,1-trifluoropropan-2-yl]pyrimidine-5-sulfonamide], the melting point lay within 231 to 232 °C. The IC50 in data set [1] is less than 500 nM.
The compound `N#Cc1c(-c2ccc(S(=O)(=O)NC3(C(F)(F)F)CC3)cn2)n(C2CCCC2)c2ccc(F)cc12` [compound 327, 6-(3-cyano-1-cyclopentyl-5-fluoro-1H-indol-2-yl)-N-[1-(trifluoromethyl)cyclopropyl]pyridine-3-sulfonamide] showed a melting point of 202 to 206 °C. For the same compound, in data set [1], the IC50 is less than 500 nM.
In the same order, the values of `Cc1ccc2c(c1)c(C#N)c(-c1ccc(S(=O)(=O)NC3(C(F)(F)F)CC3)cn1)n2C1CCC1` [compound 328, 6-(3-cyano-1-cyclobutyl-5-methyl-1H-indol-2-yl)-N-[1-(trifluoromethyl)cyclopropyl]pyridine-3-sulfonamide] are 193 to 199 °C and less than 500 nM.
On the same counts, the results for `N#Cc1c(-c2ccc(S(=O)(=O)NC3(C(F)(F)F)CC3)cn2)n(C2CCC2)c2ccc(F)cc12` [compound 329, 6-(3-cyano-1-cyclobutyl-5-fluoro-1H-indol-2-yl)-N-[1-(trifluoromethyl)cyclopropyl]pyridine-3-sulfonamide] are 176 to 183 °C and less than 500 nM.
On the same counts, the results for `N#Cc1c(-c2ccc(S(=O)(=O)NC(CF)CF)cn2)n(C2CCC2)c2cc(C(F)F)ccc12` [compound 331, 6-[3-cyano-1-cyclobutyl-6-(difluoromethyl)-1H-indol-2-yl]-N-(1,3-difluoropropan-2-yl)pyridine-3-sulfonamide] are 217 to 222 °C and less than 500 nM.
As for `CC(C)NS(=O)(=O)c1cnc(-c2c(C#N)c3ccc(C(F)F)cc3n2C2CCC2)nc1` [compound 332, 2-[3-cyano-1-cyclobutyl-6-(difluoromethyl)-1H-indol-2-yl]-N-(propan-2-yl)pyrimidine-5-sulfonamide], the melting point was in the range of 221 to 227 °C. The IC50 in data set [1] is less than 500 nM.
For the compound `C[C@@H](NS(=O)(=O)c1ccc(-c2c(C#N)c3ccc(C(F)F)cc3n2C2CCC2)nc1)C(F)(F)F` [compound 334, 6-[3-cyano-1-cyclobutyl-6-(difluoromethyl)-1H-indol-2-yl]-N-[(2R)-1,1,1-trifluoropropan-2-yl]pyridine-3-sulfonamide], the melting point lay within 200 to 206 °C. Besides, the IC50 in data set [1] is less than 500 nM.
`C[C@H](NS(=O)(=O)c1ccc(-c2c(C#N)c3ccc(C(F)F)cc3n2C2CCC2)nc1)C1CC1` [compound 335, 6-[3-cyano-1-cyclobutyl-6-(difluoromethyl)-1H-indol-2-yl]-N-[(1S)-1-cyclopropylethyl]pyridine-3-sulfonamide] showed a melting point of 182 to 189 °C. The IC50 in data set [1] is less than 500 nM.
On the same counts, the results for `COc1ccc(-n2c(-c3ccc(S(=O)(=O)NC(CF)CF)cn3)c(C#N)c3cc(F)ccc32)cc1` [compound 336, 6-[3-cyano-5-fluoro-1-(4-methoxyphenyl)-1H-indol-2-yl]-N-(1,3-difluoropropan-2-yl)pyridine-3-sulfonamide] are 198 to 200 °C and less than 500 nM.
`COc1ccc(-n2c(-c3ncc(S(=O)(=O)NC(CF)CF)cn3)c(C#N)c3cc(F)ccc32)cc1` [compound 337, 2-[3-cyano-5-fluoro-1-(4-methoxyphenyl)-1H-indol-2-yl]-N-(1,3-difluoropropan-2-yl)pyrimidine-5-sulfonamide] returned a melting point of 209 to 211 °C. The IC50 in data set [1] lay in the range of 500 to 2000 nM.
`CCc1ccc2c(C#N)c(-c3ccc(S(=O)(=O)N[C@@H](C)C(F)(F)F)cn3)n(C3CCC3)c2c1` [compound 338, 6-(3-cyano-1-cyclobutyl-6-ethyl-1H-indol-2-yl)-N-[(2S)-1,1,1-trifluoropropan-2-yl]pyridine-3-sulfonamide] had a melting point of 198 to 199 °C. In addition, the IC50 in data set [1] was less than 500 nM.
In the same order, the values of `CCc1ccc2c(c1)c(C#N)c(-c1ccc(S(=O)(=O)N[C@@H](C)C(F)(F)F)cn1)n2C1CCC1` [compound 339, 6-(3-cyano-1-cyclobutyl-5-ethyl-1H-indol-2-yl)-N-[(2S)-1,1,1-trifluoropropan-2-yl]pyridine-3-sulfonamide] are 168 to 169 °C and less than 500 nM.
Compound `Cc1cc2c(cc1F)c(C#N)c(-c1ccc(S(=O)(=O)N[C@@H](C)C(F)(F)F)cn1)n2C1CCC1` [compound 340, 6-(3-cyano-1-cyclobutyl-5-fluoro-6-methyl-1H-indol-2-yl)-N-[(2S)-1,1,1-trifluoropropan-2-yl]pyridine-3-sulfonamide] yielded a melting point of 218 to 219 °C. Also, the IC50 in data set [1] was less than 500 nM.
For `C[C@H](NS(=O)(=O)c1ccc(-c2c(C#N)c3ccc(OC(F)F)cc3n2C2CCCCC2)nc1)C(F)(F)F` [compound 341, 6-[3-cyano-1-cyclohexyl-6-(difluoromethoxy)-1H-indol-2-yl]-N-[(2S)-1,1,1-trifluoropropan-2-yl]pyridine-3-sulfonamide], the melting point was 149 to 151 °C. Besides, the IC50 in data set [1] was less than 500 nM.
On the same counts, the results for `C[C@@H](NS(=O)(=O)c1ccc(-c2c(C#N)c3ccc(C4CCC4)cc3n2C2CCCC2)nc1)C(F)(F)F` [compound 343, 6-(3-cyano-6-cyclobutyl-1-cyclopentyl-1H-indol-2-yl)-N-[(2R)-1,1,1-trifluoropropan-2-yl]pyridine-3-sulfonamide] are 176 to 178 °C and 2000 to 5000 nM.
In turn, `N#Cc1c(-c2ncc(S(=O)(=O)NC(CF)CF)cn2)n(CC2CC2)c2cc(C3CC3)ccc12` [compound 344, 2-[3-cyano-6-cyclopropyl-1-(cyclopropylmethyl)-1H-indol-2-yl]-N-(1,3-difluoropropan-2-yl)pyrimidine-5-sulfonamide] yielded a melting point of 205 to 210 °C. The IC50 in data set [1] was less than 500 nM.
Compound `Cc1ccc2c(c1)c(C#N)c(-c1ccc(S(=O)(=O)N[C@@H](C)C(F)(F)F)cn1)n2C1CCCC1` [compound 345, 6-(3-cyano-1-cyclopentyl-5-methyl-1H-indol-2-yl)-N-[(2S)-1,1,1-trifluoropropan-2-yl]pyridine-3-sulfonamide] gave a melting point of 195 to 200 °C. Moreover, in data set [1], the IC50 is less than 500 nM.
With `C[C@H](NS(=O)(=O)c1ccc(-c2c(C#N)c3cc(C#N)ccc3n2C2CCCC2)nc1)C(F)(F)F` [compound 346, 6-(3,5-dicyano-1-cyclopentyl-1H-indol-2-yl)-N-[(2S)-1,1,1-trifluoropropan-2-yl]pyridine-3-sulfonamide], the melting point was in the range of 225 to 228 °C. In addition, the IC50 in data set [1] was less than 500 nM.
On the same counts, the results for `N#Cc1ccc2c(C#N)c(-c3ccc(S(=O)(=O)NC(CF)CF)cn3)n(CC3CC3)c2c1` [compound 347, 6-[3,6-dicyano-1-(cyclopropylmethyl)-1H-indol-2-yl]-N-(1,3-difluoropropan-2-yl)pyridine-3-sulfonamide] are 199 to 201 °C and 500 to 2000 nM.
On the same counts, the results for `CC(C)NS(=O)(=O)c1ccc(-c2c(C#N)c3ccc(C#N)cc3n2CC2CC2)nc1` [compound 348, 6-[3,6-dicyano-1-(cyclopropylmethyl)-1H-indol-2-yl]-N-(propan-2-yl)pyridine-3-sulfonamide] are 190 to 192 °C and 500 to 2000 nM.
On the same counts, the results for `C[C@H](NS(=O)(=O)c1ccc(-c2c(C#N)c3ccc(C#N)cc3n2CC2CC2)nc1)C(F)(F)F` [compound 349, 6-[3,6-dicyano-1-(cyclopropylmethyl)-1H-indol-2-yl]-N-[(2S)-1,1,1-trifluoropropan-2-yl]pyridine-3-sulfonamide] are 187 to 188 °C and 500 to 2000 nM.
As for `C[C@H](NS(=O)(=O)c1ccc(-c2c(C#N)c3ccc(C#N)cc3n2CC2CC2)nc1)C1CC1` [compound 350, N-[(1S)-1-cyclopropylethyl]-6-[3,6-dicyano-1-(cyclopropylmethyl)-1H-indol-2-yl]pyridine-3-sulfonamide], the melting point is 203 to 208 °C. Further, the IC50 in data set [1] lay in the range of 500 to 2000 nM.
Compound `Cc1ccc2c(C#N)c(-c3ccc(S(=O)(=O)N[C@@H](C)C(F)(F)F)cn3)n(C3CCC3)c2c1` [compound 351, 6-(3-cyano-1-cyclobutyl-6-methyl-1H-indol-2-yl)-N-[(2S)-1,1,1-trifluoropropan-2-yl]pyridine-3-sulfonamide] had a melting point of 203 to 208 °C. Besides, in data set [1], the IC50 was less than 500 nM.
On the same counts, the results for `Cc1ccc2c(C#N)c(-c3ccc(S(=O)(=O)N[C@@H](C)C(F)(F)F)cn3)n(C3CCCC3)c2c1` [compound 352, 6-(3-cyano-1-cyclopentyl-6-methyl-1H-indol-2-yl)-N-[(2S)-1,1,1-trifluoropropan-2-yl]pyridine-3-sulfonamide] are 176 to 180 °C and less than 500 nM.
On the same counts, the results for `Cc1ccc2c(C#N)c(-c3ccc(S(=O)(=O)N[C@@H](C)C(F)(F)F)cn3)n(CC3CC3)c2c1` [compound 353, 6-[3-cyano-1-(cyclopropylmethyl)-6-methyl-1H-indol-2-yl]-N-[(2S)-1,1,1-trifluoropropan-2-yl]pyridine-3-sulfonamide] are 165 to 168 °C and less than 500 nM.
